Experimental data published in the METLIN SMRT retention time set (Domingo-Almenara et al. 2019).

Test: gradient 5% acetonitrile 3 min, to 50% in 2 min, to 85% in 15 min, held 3 min, 100 µL/min
Settings: column: Zorbax Extend-C18 2.1 x 50 mm; eluents: water / acetonitrile, 0.1% formic acid
Summary of the method: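 The system's dead and dwell volumes were 40 μL and 900 μL, with a Zorbax Extend-C18 column (2.1 × 50 mm, 1.8 μm) run at 100 μL/min in water and acetonitrile containing 0.1% formic acid each. Pure standards were analyzed in mixtures of ~100 molecules by HPLC–quadrupole time-of-flight mass spectrometry in positive and negative ionization mode. Retention time was assigned from computationally picked, manually inspected adduct peaks.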

Row | Structure (SMILES) | RP-LC retention time
1 | Cc1c(N2C(=O)c3cccc4cccc(c34)C2=O)c(=O)n(-c2ccccc2)n1C | 644 s
2 | Cc1nnc2ccc(NC(=O)Nc3ccc(F)cc3)cn12 | 660 s
3 | COc1cc([C@@H]2c3cc4c(cc3[C@H](O)[C@@H](CO)[C@@H]2C(=O)N2CCN(c3ccc(F)cc3)CC2)OCO4)cc(OC)c1OC | 720 s
4 | COc1ccc(OC)c(S(=O)(=O)Cc2nc(-c3ccc(Cl)cc3)no2)c1 | 1030 s
5 | COC(=O)c1cc2nc(-c3ccc(F)cc3)cc(C)n2n1 | 866 s
6 | COc1ccccc1-c1cc2nc(C)cc(N3CCN(c4ccccn4)CC3)n2n1 | 580 s
7 | Cc1cccc(S(=O)(=O)N2CC=C(c3cn(C)c4ncccc34)CC2)c1 | 898 s
8 | Cc1nn(C(C)C(=O)Nc2cc(F)ccc2F)c(=O)c2c(-n3cccc3)n(-c3ccccc3)nc12 (centres undefined) | 1130 s
9 | CSc1ccc(CNC(=O)Cn2nc(-n3cccc3)c3c(C)cc(C)nc32)cc1 | 1020 s
10 | CCn1cc(CCN2CCN(S(=O)(=O)c3ccc(C)c(Cl)c3)CC2)c2cccnc21 | 708 s
11 | CCN1C[C@H](C)n2c(c(O)c3c(=O)n(Cc4ccc(F)c(Cl)c4)nc(C(=O)NC)c32)C1=O | 871 s
12 | COc1ccc(CNC(=O)C2(C)CCN(C(=O)Nc3ccc(C)c(F)c3)CC2)cc1 | 880 s
13 | CCOc1ccc(-c2cc3c(=O)n(Cc4nc(-c5cccc(Br)c5)no4)ccn3n2)cc1 | 1200 s
14 | CN1C(=O)c2cc(S(=O)(=O)Nc3ccc(F)cc3F)ccc2Oc2cccnc21 | 887 s
15 | CC(C)CNC(=O)c1nn(C)c2c1COc1ccccc1-2 | 690 s
16 | Cc1ccccc1NS(=O)(=O)c1cc(-c2nc(C(C)(C)C)cs2)cs1 | 1260 s
17 | CC(C)n1cnc(S(=O)(=O)N2CCC(C(=O)NCc3ccc(Br)cc3)CC2)c1 | 782 s
18 | COc1cccc(-c2noc(Cn3nc4ccc(-c5ccc(C)c(C)c5)nn4c3=O)n2)c1OC | 969 s
19 | CC(C)(C)OC(=O)NCc1nnc(C(F)(F)F)n1-c1ccccc1 | 773 s

Row | Structure (SMILES) | RP-LC retention time
20 | CCOc1ccccc1-c1noc(Cn2c(=O)n(-c3ccc(OC)cc3)c(=O)c3sccc32)n1 | 962 s
21 | OCCNCCN1CCN(CCCN2c3ccccc3Sc3ccc(C(F)(F)F)cc32)CC1 | 641 s
22 | Cc1ccc(C)c(-c2coc(-c3ccc(NC(=O)C(C)C)cc3)n2)c1 | 1170 s
23 | CCOc1ccc(NC(=O)N2CCC(C)(C(=O)NCc3ccc(F)cc3)CC2)cc1 | 796 s
24 | CCn1c(=O)n(CC)c2cc(S(=O)(=O)c3ccccc3)c(NC(=O)C3CC3)cc21 | 816 s
25 | CCC(=O)N1CCc2cc(-c3ccc(C(=O)NCCc4ccco4)cc3)ccc21 | 888 s
26 | CCn1ccc2c(cc(C(=O)Nc3ccc(C)cc3)n2C)c1=O | 769 s
27 | CC(C)n1cnc(S(=O)(=O)N2CCC(C(=O)Nc3cccc(Br)c3)CC2)c1 | 843 s
28 | COc1ccc(C(O)CN2CCN(c3ccccc3)CC2)cc1OC (centres undefined) | 607 s
29 | CCOC(=O)c1c(C)oc2ncnc(N3CCc4cc(OC)c(OC)cc4C3C)c12 (centres undefined) | 981 s
30 | CCOC(=O)c1[nH]c(C)c(C(=O)CN(CC2CCCO2)C(=O)c2ccc(F)cc2)c1C (centres undefined) | 800 s
31 | Cc1cc(Nc2nc(N[C@@H](C)c3ncc(F)cn3)ncc2Cl)n[nH]1 | 622 s
32 | COc1ccccc1N1CCN(S(=O)(=O)CCNC(=O)CCCc2ccccc2)CC1 | 832 s
33 | COc1ccc(-c2cc(NS(C)(=O)=O)n(C3CCS(=O)(=O)C3)n2)cc1 (centres undefined) | 696 s
34 | CC1CN(c2ccc(Br)cc2)c2nc3c(c(=O)n(CC(=O)O)c(=O)n3C)n2C1 (centres undefined) | 829 s
35 | COCCN(Cc1ccc(F)cc1)Cc1cc(=O)n2cc(Cl)ccc2n1 | 647 s
36 | CCn1c(=O)c2cc(C(=O)Nc3ccc(OC)cc3OC)nn2c2ccccc21 | 1030 s
37 | O=C(Cc1ccccc1Cl)N1CCN(Cc2noc3ccccc23)CC1 | 739 s

Second part, the molecule after the results:

Row | RP-LC retention time | Structure (SMILES)
38 | 806 s | Cc1nn(-c2ccccc2)c2nc(N3CCCC(C(=O)NCc4ccc(F)cc4)C3)sc12 (centres undefined)
39 | 742 s | O=C(Nc1ccc2c(c1)CCC2)c1ccnc(N2CCNC(c3ccccc3)C2)c1 (centres undefined)
40 | 616 s | Cn1c(=O)c(-c2ccc(C(=O)NCCCN3CCCC3)cc2)nc2ccccc21
41 | 713 s | CC(=O)N1CCc2cc(N3CC(C(=O)NCc4ccc(F)cc4Cl)CC3=O)ccc21 (centres undefined)
42 | 690 s | CN1CCCn2cc(S(=O)(=O)Nc3ccc(F)c(F)c3)cc2C1=O
43 | 909 s | CCCc1cc(C2CCCN2C(=O)Cc2ccc(OC)cc2)no1 (centres undefined)
44 | 1010 s | CCS(=O)(=O)N1CC(=O)N(c2ccc(C)c(Cl)c2)C(C)(C(=O)NC2CCCCCC2)C1 (centres undefined)
45 | 638 s | CCCN1CCN(C(=O)CSCc2nc3cccnc3n2C2CCCCC2)CC1
46 | 801 s | CN(C)C(=O)c1ccc2c(c1)N(CC(=O)NC1CCCCCC1)C(=O)C1CCCCN21 (centres undefined)
47 | 552 s | Cc1noc(C)c1C(=O)N(C)C1CCc2nnc(C)n2CC1 (centres undefined)
48 | 588 s | NCCC1CCN(C(=O)Nc2cc(F)ccc2F)CC1
49 | 761 s | O=C(NCc1ccccc1)C1CCN(c2ccc(SCc3ccccc3)nn2)CC1
50 | 725 s | O=C1CCN(C(=O)C2CCN(C(=O)CCC3CCCC3)CC2)CCCCCCN1
51 | 1030 s | Cc1[nH]c(C(=O)N2CCC(CC(=O)NCc3ccccc3F)CC2)c(C)c1C(=O)OC(C)C
52 | 829 s | COc1ccc(N2CCN(C(=O)CN3C(=O)CCc4cc(Br)ccc43)CC2)cc1
53 | 935 s | O=C(NCc1ccccc1)C1CCN(S(=O)(=O)c2cc(-c3noc(C4CC4)n3)cs2)CC1
54 | 614 s | N#Cc1ccc(C(=O)N2CCN(c3nc(CN4CCCCC4)cs3)CC2)cc1
55 | 722 s | COc1cccc(OC)c1C(=O)Nc1ccc2c(c1)CCCN2C(=O)C1CC1
56 | 1100 s | Cc1nc(N2CCCC2)ncc1-c1ccnc(N2CCN(c3ccccc3)CC2)n1
57 | 698 s | COc1ccc(NC(=O)N2CCC(n3c(-c4ccoc4)nc4cccnc43)C2)cc1 (centres undefined)
58 | 598 s | O=C(Nc1ccccc1)C1CCCN(c2nnc3ccccn23)C1 (centres undefined)
59 | 747 s | Cc1ccc(S(=O)(=O)N2CC(Cc3nncn3C3CCCC3)C2)cc1F
60 | 644 s | COc1ccc(-c2ncc3c(n2)CCN(C(=O)Nc2ccc(C)cc2C)C3)cc1
61 | 685 s | Cn1nc(C(=O)N2CCCC2)c2c1CCN(C(=O)CCC(=O)NCCc1c[nH]c3ccccc13)C2
62 | 758 s | NC(N)=NC(=O)c1nc(Cl)c(N2CCCCCC2)nc1N
63 | 770 s | Cc1cc(F)ccc1NS(=O)(=O)c1cc(-c2[nH]ncc2C(=O)N2CCCCC2)oc1C
64 | 1040 s | NC(=O)N1CCC(CC(=O)N2CCC([C@H]3c4ncc(Br)cc4CCc4cc(Cl)cc(Br)c43)CC2)CC1
